From US8741645B2, “Test kit comprising a culture instrument with a cell pattern and a gel suitable to embed cell pattern” (Dai Nippon Printing Co., Ltd., priority 2006, dated 2014) come the findings set out here.

Assay type in all cases: cell-based
For experiment [1], the system named is bovine aortic vascular endothelial cells. Description: Lumen formation test (cell shrinkage), cell pattern sandwiched between substrate and GFR Matrigel (configuration of FIG. 3). Also on record: key: ∘: Large inhibition effect; Δ: Small inhibition effect; x: No inhibition effect. To be noted: inhibitor previously added; shrinkage of multiple cells observed, GFR Matrigel. As to the method: An autoclave-sterilized substrate was arranged within a culture container and then an appropriate amount of MEM medium containing 5% fetal calf serum was added. 2.0×10^5 bovine aortic vascular endothelial cells were seeded per substrate. After 72 hours of culture, cells adhered only to oxidatively degraded regions and reached confluency on the lines each having a width of 60 μm.
200 μl of ice-cooled Growth Factor Reduced (GFR) Matrigel (Becton, Dickinson and Company) was spread over a culture container and then allowed to stand at room temperature for approximately 1 minute. The substrate was gently placed with its cell adhesion face down onto the matrigel. The resultant was allowed to stand for approximately 5 minutes while maintaining this condition. After complete gelling, MEM medium containing 5% fetal calf serum was added and then the substrate was immersed in the medium. The culture container was transferred into an incubator (37° C., 5% CO2) and then cells were cultured while being sandwiched between a substrate and matrigel. […] This is a phenomenon that is characteristically observed when vascular endothelial cells undergo lumen formation in response to differentiation signals coming from the extracellular matrix. When a vascularization inhibitor had been previously added to the three-dimensional culture system, shrinkage of multiple cells was inhibited or not inhibited according to the relevant pharmacologic action (Table 1). This means that the effect of a drug on lumen formation can be efficiently tested via observation of cell shrinkage that is observed at the initial stage of differentiation. This test method could also be performed for normal human umbilical vein endothelial cells in completely the same manner.

Experiment [2] deals with Normal human (adult) dermal fibroblasts. The experiment can be described thus: Cell migration and proliferation of linear cell pattern embedded in collagen gel (configuration of FIG. 3). To be noted: 10 μM in culture solution; observed at 3, 6, 9 and 21 hours; compared with culture solution and DMSO systems. Here is the method: The above dish was sterilized with 70% ethanol. Normal human (adult) dermal fibroblasts (KF-4109, Cascade Biologics) dispersed in a culture solution (basal medium M-106-500S, additive agent KE-6350, and Cascade Biologics/KURABO) was seeded at 4×10^5 cells per dish. Cells were cultured using an incubator under conditions of 37° C. and 5% CO2 for 18 hours. A linear pattern formed by cells that had adhered was obtained.
Cell aggregates were embedded into gel that had been prepared using the collagen gel kit used in Example 5 and then three-dimensional culture was performed with the configuration of FIG. 3. After 30 minutes of gelling at 37° C., three types of culture were performed using (1) a system containing the above culture solution, (2) a system containing a culture solution prepared by adding 10 μM inhibitor PP2 to the above culture solution, and (3) a system containing a culture solution containing DMSO with the same concentration as that of DMSO (used as a solvent for preparing 1 mM stock solution of PP2) contained in the above-prepared culture solution containing PP2.

Experiment [3] concerns bovine aortic vascular endothelial cells. The experiment can be described thus: Vascularization test, three-dimensional culture of cell pattern in collagen gel (configuration of FIG. 2). Particulars: 50 μM added to three-dimensional culture system, medium with proliferation factors. As to the method:
An autoclave-sterilized substrate was arranged within a culture container and then an appropriate amount of MEM medium containing 5% fetal calf serum was added. 2.0×10^5 bovine aortic vascular endothelial cells were seeded per substrate. After 48 hours of culture within an incubator (37° C., 5% CO2), cells adhered only to oxidatively degraded regions and reached confluency on the lines each having a width of 60 μm.
A collagen solution was prepared on ice using a collagen gel culture kit (Cellmatrix I-A, Nitta gelatin). 500 μl of the solution was spread flatly over a 28 mm×33 mm well, followed by 10 minutes of gelling at 37° C. 2 ml of MEM medium containing 5% fetal calf serum was added to the gel. The substrate was caused to sink while upside-down in the medium, so that cells that had adhered to the substrate were caused to come into contact with collagen gel at the bottom. After 4 hours of culture within an incubator, the substrate was carefully removed using a pair of tweezers. […] The medium was removed by suction, 250 μl of the collagen solution was applied in layers to the cells, and then gelling was performed at 37° C. for 10 minutes. […]

Regarding `N=C(N)NC(=O)c1nc(Cl)c(N)nc1N` [Amiloride], the “Inhibition effect (inhibiting lumen formation)” value (“Inhibition effect” below) in experiment [1] was “x”.
On the same count and under the same terms, in the case of `O=c1cc(N2CCOCC2)oc2c(-c3ccccc3)cccc12` [LY294002] it was “Δ”; in that of `CN(C)c1ccc(O)c2c1C[C@H]1C[C@H]3[C@H](N(C)C)C(O)=C(C(N)=O)C(=O)[C@@]3(O)C(O)=C1C2=O` [Minocycline], “x”.
Consider `CC(C)(C)n1nc(-c2ccc(Cl)cc2)c2c(N)ncnc21` [PP2], for which, in experiment [2], the cell migration entry is “significantly suppressed” and the cell proliferation entry is reported as “significantly suppressed”. Moreover, the “Inhibition effect” value in experiment [1] is recorded as “∘”.
Regarding `Cc1ccc(C(=O)Nc2ccc(S(=O)(=O)O)c3cc(S(=O)(=O)O)cc(S(=O)(=O)O)c23)cc1NC(=O)c1cccc(NC(=O)Nc2cccc(C(=O)Nc3cc(C(=O)Nc4ccc(S(=O)(=O)O)c5cc(S(=O)(=O)O)cc(S(=O)(=O)O)c45)ccc3C)c2)c1` [Suramin], in experiment [3], the vascularization result is “completely inhibited”. Also, the “Inhibition effect” value in experiment [1] is recorded as “x”.
Turning to `C[C@@H](N)[C@H]1CC[C@H](C(=O)Nc2ccncc2)CC1` [Y27632], in experiment [1], the “Inhibition effect” value is on record as “x”.
